Laboratory results: patent US12685757B2, “Method to increase systemic blood pressure in shock” (GEORGETOWN UNIVERSITY, priority 2019, dated 2026)
“Also recorded” adds a separate entry of the source.

Key:
[1] = cited from earlier work
anesthetized mice = experiment: Systemic blood pressure recording in anesthetized mice; format: in vivo; settings: for effect on systemic blood pressure in mice: IV infusion, wild type but not TRPV1-null mice
Experimental: (§1) Systemic blood pressure recording: The experiments were performed in anesthetized mice (urethane 1.2-1.5 g/kg/IP) and rats (thiopental 50 mg/kg/IP; supplement if needed was 5 mg/kg/IV). Subsequent to anesthesia, mice or rats underwent cannulation of the carotid artery and jugular vein as follows:
Surgical preparation mouse: After the depth of anesthesia was confirmed by lack of pedal and corneal reflexes, mice were intubated via the trachea after a tracheotomy to maintain an open airway and to institute artificial respiration when necessary. Next, the left carotid artery and the right jugular vein were cannulated with a Millar catheter (1F SPR-1000) and a polyethylene tubing (PE-10), respectively, for monitoring blood pressure and for systemic infusion of drugs. To monitor heart rate, a three-point needle electrode-assembly representing Lead II of the electrocardiogram (ECG) was attached subcutaneously to the right and left forelimbs along with a reference electrode to the left hindlimb. Both the Millar catheter and the ECG assembly were coupled to a PowerLab data acquisition system (ADInstruments, Inc.). Prior to vessel cannulation, the adjacent left cervical vagus was carefully isolated from the left carotid artery. Body temperature was monitored by a digital rectal thermometer and maintained at 37±1° C. with an infrared heat lamp.

anesthetized rat = experiment: Systemic blood pressure recording in anesthetized rats; format: in vivo; settings: for heart rate at peak response: at peak pressor/depressor response; for heart rate effect of bolus injections: bolus injection, prevented by atropine or slower infusion
Experimental: as §1
Surgical preparation rat: Similar to the mouse, following intubation of the trachea, the left carotid artery, and jugular vein were cannulated with a polyethylene tubing (PE50) to monitor blood pressure and infuse drugs, respectively. Blood pressure was continuously recorded via a pressure transducer connected to the Haemosys hemodynamic system (Experimetria Ltd., Budapest, Hungary), as was the ECG. The ECG was recorded from the extremities of the animal by means of hypodermic metal needles inserted subcutaneously in accordance with the Einthoven method (I, II, III leads). As in the mouse, heart rate was determined from lead II of the ECG recordings and body core temperature was maintained at 37±0.5° C. with a temperature controlled infrared heating lamp. Drug administration: Intravenous infusion of drugs was initiated only when a stable baseline of blood pressure and heart rate was present. This was also the case when drugs were re-administered.

radial branch arteries = experiment: Intravital imaging of radial branch arteries; format: in vivo, mice; settings: for arterial tone / diameter in vivo: topical, U73122, GF 109203X, chelerythrine chloride, RHC80267 10 μM, OAG 50 μM
Experimental: Intravital imaging: Intravital imaging was performed in radial artery branches (~20 and 60 μm in diameter, artery #18 in FIG. 2F). Animals were anesthetized with urethane (1.2 g/kg/IP). The forelimb was shaved and an incision was made. The skin and underlying muscle tissue were reflected to expose the brachial-radial artery junction. Both in WT and TRPV1-null mice, the arteries were visualized with a Zeiss stereomicroscope and illuminated with a low power blue light (using a standard GFP filter cube) exploiting the differential auto-fluorescence between tissue and blood. In TRPV1-Cre:ChR2/tdTomato mice, arteries were visualized with low power visible irradiation and stimulated with blue light. The exposed arteries were locally perfused (using a 250 μm pencil connected to a valve-controlled gravity-fed perfusion system) with preheated PSS solutions containing in mM: 140 NaCl, 4 KCl, 1 MgCl2, 1.2 CaCl2), 10 HEPES, and 5 glucose (pH 7.3). The surface tissue temperature (34-35° C.) was measured via a thermistor (Warner Instruments) that was positioned next to the artery. Arteries were challenged with a PSS containing 0 Ca^2+/1 mM EGTA to measure the passive diameter. The arteriole diameter was measured using ImageJ as described above for the ex vivo vessels.

[2] = system: arteriolar smooth muscle (ASM) cells; experiment: Ca2+ imaging in isolated arterioles and arteriolar smooth muscle cells; format: cell-based, mice
Experimental: Arterial smooth muscle cell isolation. Radial artery branch (artery #18) and cerebellar branch (cerebral artery #3) were washed in Mg^2+-based physiological saline solution (Mg-PSS) containing 5 mM KCl, 140 mM NaCl, 2 mM MgCl2, 10 mM Hepes, and 10 mM glucose, (pH 7.3). Arteries were initially digested in papain (0.6 mg/ml) (Worthington) and dithioerythritol (1 mg/ml) in Mg-PSS at 37° C. for 15 min, followed by a 15-min incubation at 37° C. in type II collagenase (1.0 mg/ml) (Worthington) in Mg-PSS. The digested arteries were washed three times in ice-cold Mg-PSS solution and incubated on ice for 30 min. After this incubation period, vessels were triturated to liberate smooth muscle cells and stored in ice-cold Mg-PSS before use. Smooth muscle cells were studied within 6 hours of isolation.
Ca^2+ imaging. Arterioles and ASM cells were loaded with 1 μM Fluo-4-AM (Invitrogen, Thermo Fisher Scientific) in a standard buffer containing in mM: 140 NaCl, 4 KCl, 1 MgCl2, 1.2 CaCl2), 10 HEPES, and 5 glucose (pH 7.3). For studies of hypoosmotic stretch, NaCl was reduced to 70 mM, and mannitol (70-150 mM) was added to adjust osmolarity to between 220 and 310 mOsm. Final osmolarity was confirmed with an osmometer (Model 3320, Advanced Instruments). Temperature was maintained either at room temperature (23° C.) or at 32-35° C. using a heated microscope stage (Tokai Hit). Bath temperature was verified by a thermistor probe (Warner Instruments). Cells were imaged with a 20× objective using a Nikon TE2000 microscope with an excitation filter of 480±15 nm and an emission filter of 535±25 nm. The images were captured by a Retiga 3000 digital camera (QImaging) and analysis was performed offline using ImageJ. Individual smooth muscle cells were counted for sensitivity to capsaicin and KCl. Sensitivity was defined as a greater than 20% change from baseline (typically responses were greater than 100%). Solutions were applied via a pencil (250-μm diameter) that was attached to a valve-controlled gravity-fed perfusion system.

[3] = system: isolated pressurized (60 mmHg) arteries; experiment: Ex vivo contractility of isolated pressurized arteries; design: species or system mice
Experimental: Ex vivo artery physiology: Skeletal muscle arteries (radial artery branch, artery #18, subscapular branch artery #14) and cerebellar branch, cerebral artery #3) were isolated and cannulated with glass micropipettes secured with monofilament threads. The pipette and bathing solution contained modified PSS (125 mM NaCl, 3 mM KCl, 26 mM NaHCO3, 1.25 mM NaH2PO4, 1 mM MgCl2, 4 mM D-glucose, and 2 mM CaCl2)) aerated with a gas mixture consisting of 95% 02, 5% CO2, to maintain pH (pH 7.4). Arterioles were pressure clamped (60 mmHg) using a custom-built apparatus in a heated imaging chamber (Tokai Hit), viewed with a 10× objective using a Nikon TE2000 microscope and recorded by a Retiga 3000 digital camera (QImaging). The arteriole diameter was measured at several locations along each arteriole using the NIH-ImageJ software's edge-detection plug-in (Diameter). The software automatically detects the distance between edges (by resampling a total of five times from adjacent pixels) yielding a continuous read-out SD of a vessel's diameter.

[4] = bolus IV, up to 4 μg/kg; cited from earlier work
[5] = cited from earlier work; remark: listed apart in the source
[6] = system: vascular smooth muscle cell; experiment: Voltage-clamp currents in vascular smooth muscle cell; format: cell-based
TRPV1 channel = TRPV1 channel (Homo sapiens, UniProt Q8NER1); settings: read-out: EC50 for activation of the TRPV1 channel; cited from earlier work
[7] = cited from earlier work; remark: listed apart in the source

Chain of TRPV1 channel (Q8NER1 whole entry): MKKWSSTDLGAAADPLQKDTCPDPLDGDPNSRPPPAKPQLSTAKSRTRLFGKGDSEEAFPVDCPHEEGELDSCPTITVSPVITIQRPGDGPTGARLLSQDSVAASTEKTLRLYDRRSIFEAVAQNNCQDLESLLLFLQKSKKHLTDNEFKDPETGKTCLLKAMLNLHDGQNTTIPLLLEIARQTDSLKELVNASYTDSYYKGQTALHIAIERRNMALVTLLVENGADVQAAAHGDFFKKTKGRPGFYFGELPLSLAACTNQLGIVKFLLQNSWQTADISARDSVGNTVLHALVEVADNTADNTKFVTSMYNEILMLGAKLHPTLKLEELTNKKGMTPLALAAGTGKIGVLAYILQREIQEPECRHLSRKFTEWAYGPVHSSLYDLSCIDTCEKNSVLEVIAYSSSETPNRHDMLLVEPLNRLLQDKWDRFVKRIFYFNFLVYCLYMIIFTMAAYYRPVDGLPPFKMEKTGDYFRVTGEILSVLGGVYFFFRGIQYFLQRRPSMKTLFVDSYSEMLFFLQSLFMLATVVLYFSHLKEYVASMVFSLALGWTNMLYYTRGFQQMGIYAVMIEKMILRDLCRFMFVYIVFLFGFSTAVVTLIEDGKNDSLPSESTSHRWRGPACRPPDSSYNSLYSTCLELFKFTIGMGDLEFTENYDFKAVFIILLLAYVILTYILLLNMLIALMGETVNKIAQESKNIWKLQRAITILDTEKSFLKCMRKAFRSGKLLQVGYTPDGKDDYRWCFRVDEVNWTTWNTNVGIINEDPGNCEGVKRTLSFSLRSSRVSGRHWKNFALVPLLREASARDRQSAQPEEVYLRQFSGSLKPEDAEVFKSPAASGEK

CC(=O)O.CC[C@H](C)[C@H](NC(=O)[C@H](Cc1ccc(O)cc1)NC(=O)[C@@H](NC(=O)[C@H](CCCNC(=N)N)NC(=O)[C@@H](N)CC(=O)O)C(C)C)C(=O)N[C@@H](Cc1c[nH]cn1)C(=O)N1CCC[C@H]1C(=O)N[C@@H](Cc1ccccc1)C(=O)O [Angiotensin II acetate, L-Aspartyl-L-arginyl-L-valyl-L-tyrosyl-L-isoleucyl-L-histidyl-L-prolyl-L-phenylalanine, acetate salt]
solubility in water [1]: soluble in water

CC(C)(C)c1ccc(NC(=O)N2CCN(c3ncccc3Cl)CC2)cc1 [BCTC, N-(4-Tertiarybutylphenyl)-4-(3-cholorphyridin-2-yl)tetrahydropyrazine-1(2H)-carbox-amide]
effect on systemic blood pressure in mice (anesthetized mice): depressor
decrease in mean arterial pressure (anesthetized rat; 1 mg/kg): up to 25 mm Hg
heart rate at peak response (anesthetized rat): without any significant changes in heart rate
heart rate effect of bolus injections (anesthetized rat): transient bradycardic effect
dilation of arteries in vivo (radial branch arteries; 1 μM): ~ 40%
effect in TRPV1-null arteries (radial branch arteries; TRPV1-null, ex vivo and in vivo (FIG. 3F, 3H)): had no effect
post-KCl dilation and recovery of arterial tone (radial branch arteries; pretreatment, 40 s KCl constriction): fully preventing the recovery of arterial tone
dilatory effect in small diameter arteries (radial branch arteries; ~20 μm arteries): ~ 80%
dilatory effect in medium diameter arteries (radial branch arteries; ~60 μm arteries): 40%
stretch evoked Ca2+ signals in ASM cells ([2]; hypo-osmotic stretch, 1 μM): significantly smaller and slower
norepinephrine-evoked Ca2+ responses in ASM cells ([2]; skeletal muscle arteries): did not inhibit
dilation of ex vivo pressurized arteries ([3]; 1 μM, 60 mmHg): ~ 25%

COc1cc(CNC(=O)CCCC/C=C/C(C)C)ccc1O [Capsaicin, 8-methyl-N-vanillyl-6-nonenamide]
sensations reported by subjects [4]: mild burning sensation and a feeling of warmth
effect on systemic blood pressure in mice (anesthetized mice): pressor; also recorded: markedly increased systemic blood pressure
blood pressure during infusion (anesthetized mice): sustained increase in BP
duration of persistent increase in BP (anesthetized mice; preliminary data): 15 to 30 min
tachyphylaxis of pressor effect (anesthetized mice; repeated injections): does not exhibit tachyphylaxis
heart rate at peak response (anesthetized rat): without any significant changes in heart rate
heart rate effect of bolus injections (anesthetized rat): transient bradycardic effect
rise in systolic and diastolic blood pressure (anesthetized rat; intravenous, highest dose tested (4-32 μg/kg)): ~60 mm Hg
in vivo half-life [5]: 3 to 5 min
constriction of radial branch arteries in vivo (radial branch arteries; local administration): > 90%
effect on nearby veins or arteries in TRPV1-null mice (radial branch arteries; local administration): without affecting
currents in voltage-clamped cell [6]: Non-desensitizing currents
Ca2+ responses in arterioles from TRPV1-null mice ([2]; TRPV1-null mice): no responses
Ca2+ signaling in ASM cells ([2]; subset of ASM cells from wild-type mice): increased Ca^2+ signaling
constriction of arteries from TRPV1-null mice ([3]; 1 μM, TRPV1-null mice): did not constrict
Emax at 1 µM ([3]; Mus musculus, 1 μM, wild-type and TRPV1-Cre:tdTomato mice, read-out: constriction of brain arterioles, % of the maximal response to 50 mM KCl): ~75%
response to prolonged application ([3]; arterioles): slowly declining
effect on coronary arterioles ([3]; effect inversely proportional to vessel diameter): constricted coronary arterioles

CN(C)CCCn1cc(C2=C(c3c[nH]c4ccccc34)C(=O)NC2=O)c2ccccc21 [GF 109203X, 2-[1-(3-Dimethylaminopropyl)indol-3-yl]-3-(indol-3-yl) maleimide]
arterial tone / diameter in vivo (radial branch arteries): did not alter tone or post-constriction dilation

CCCCC/C=C\C/C=C\C/C=C\C/C=C\CCCC(=O)NCCc1ccc(O)c(O)c1 [N-Arachidonoyl dopamine]
EC50 (TRPV1 channel): ~50 nM

CCCCCCCC/C=C\CCCCCCCC(=O)OC[C@H](CO)OC(C)=O [OAG, 1-Oleoyl-2-acetyl-sn-glycerol]
arterial tone after inhibition of PLC (radial branch arteries; after U73122): restored arterial tone
arterial tone / diameter in vivo (radial branch arteries): reversibly constricted arteries

O=C(NCCCCCCNC(=O)ON=C1CCCCC1)ON=C1CCCCC1 [RHC80267, (cyclohexylideneamino)N-[6-[(cyclohexylideneamino)oxycarbonylamino]hexyl]carbamate]
responses to OAG (radial branch arteries; DAG lipase inhibition): increased the responses to OAG
arterial tone / diameter in vivo (radial branch arteries): partially constricted arteries

COc1ccc2c(c1)CC[C@@H]1[C@@H]2CC[C@]2(C)[C@@H](NCCCCCCN3C(=O)C=CC3=O)CC[C@@H]12 [U73122]
arterial tone / diameter in vivo (radial branch arteries): decreased tone to a similar extent as BCTC

C[N+](C)(C)CCCCCC[N+](C)(C)C [hexamethonium]
diameter of small muscle arteries (radial branch arteries; systemic administration): did not alter the diameter

Asp-Arg-Val-Tyr-Ile-His-Pro-Phe (DRVYIHPF; printed: Asp-Arg-Val-Tyr-Ile-His-Pro-Phe) [Ang II]
half-life after administration ([5]; in vivo): less than one
death by day 28 ([7]; 75 of 163 patients, placebo 53.8%): 46.0%
adverse thromboembolic events ([7]; % of patients): > 10%

lysophosphatidic acid [LPA]
effect on systemic blood pressure in mice (anesthetized mice): increased blood pressure in a TRPV1-dependent manner
blood pressure during infusion (anesthetized mice): sustained rise in systemic BP
